The text below walks through data of patent US10168342B2, “Lipid probes and uses thereof” (THE SCRIPPS RESEARCH INSTITUTE, priority 2015, dated 2019).

Structures are written as SMILES. Like-named read-outs stand apart in the source and are kept apart here.

Test [1] deals with A-DA lipid probe targets in A549 cells (Homo sapiens, UniProt Q5HYK3). Description: In situ competitive SILAC profiling with A-DA probe in (PMA-stimulated) A549 cells. To be noted: A549 cells, A-DA probe.
Test [2] deals with AEA-DA lipid probe targets in Neuro2a cells (Mus musculus, UniProt Q80YV4). To be noted: competitor 200 μM.
The target of test [3] is T1, A-DA lipid probe targets in A549 cells (Homo sapiens, UniProt Q9UH99).
T1 sequence (Q9UH99 1-717): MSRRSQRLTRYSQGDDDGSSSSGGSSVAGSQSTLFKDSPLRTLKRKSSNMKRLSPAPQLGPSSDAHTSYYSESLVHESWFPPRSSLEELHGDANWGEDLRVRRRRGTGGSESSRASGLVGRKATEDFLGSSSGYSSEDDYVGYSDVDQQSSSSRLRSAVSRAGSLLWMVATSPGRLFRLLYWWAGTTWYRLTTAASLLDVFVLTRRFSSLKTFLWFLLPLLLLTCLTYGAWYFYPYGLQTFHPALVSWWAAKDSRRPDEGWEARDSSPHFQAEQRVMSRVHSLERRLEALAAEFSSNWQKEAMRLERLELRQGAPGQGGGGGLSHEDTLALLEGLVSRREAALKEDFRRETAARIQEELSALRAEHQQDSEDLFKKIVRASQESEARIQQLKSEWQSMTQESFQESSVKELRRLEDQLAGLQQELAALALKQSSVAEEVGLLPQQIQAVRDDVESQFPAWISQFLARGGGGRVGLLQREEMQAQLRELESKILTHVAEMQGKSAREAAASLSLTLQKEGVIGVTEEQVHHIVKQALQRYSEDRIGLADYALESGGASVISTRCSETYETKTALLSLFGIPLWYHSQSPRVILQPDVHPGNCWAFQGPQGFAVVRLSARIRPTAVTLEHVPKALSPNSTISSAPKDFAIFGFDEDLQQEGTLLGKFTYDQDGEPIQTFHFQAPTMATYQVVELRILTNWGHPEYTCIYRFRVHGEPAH
Description: In situ competitive SILAC profiling with A-DA probe in (PMA-stimulated) A549 cells. As to conditions: protein SUN2 (Q9UH99), A549 cells.

Test [4] has as its target A-DA lipid probe targets in A549 cells (Homo sapiens, UniProt P48449). Described as above. To be noted: A549 cells, A-DA 5 μM, drug 5 μM; only two off-targets (TMEM97 and EBP).
Test [5] addresses AEA-DA lipid probe targets in A549 cells (Homo sapiens, UniProt Q53GQ0). Description: In situ competitive SILAC profiling with AEA-DA probe in A549 cells. To be noted: competitor 25 μM.
Test [6] relates to AEA-DA lipid probe targets in A549 cells. The test is described as above. As to conditions: competitor 25 μM.
Test [7] has as its target AEA-DA lipid probe targets in A549 cells (Homo sapiens, UniProt Q86XL3). The test is described as above. As to conditions: competitor 25 μM.
Test [8] has as its target AEA-DA lipid probe targets in A549 cells (Homo sapiens, UniProt P45880). Described as above. As to conditions: competitor 25 μM.
Test [9] deals with AEA-DA lipid probe targets in A549 cells (Homo sapiens, UniProt Q14534). Described as above. As to conditions: competitor 25 μM.
Test [10] deals with AEA-DA lipid probe targets in A549 cells (Homo sapiens, UniProt P21796). The description is as above. As to conditions: competitor 25 μM.
Test [11] concerns the target AEA-DA lipid probe targets in A549 cells (Homo sapiens, UniProt P30519). Described as above. To be noted: competitor 25 μM.
Test [12] has as its target AEA-DA lipid probe targets in A549 cells (Homo sapiens, UniProt O95470). Described as above. To be noted: competitor 25 μM.
Test [13] deals with AEA-DA lipid probe targets in A549 cells (Homo sapiens, UniProt P67812). The description is as above. To be noted: competitor 25 μM.
Test [14] has as its target AEA-DA lipid probe targets in Neuro2a cells (Mus musculus, UniProt Q9QXS1). To be noted: competitor 25 μM.
For test [15], the target named is T2, AEA-DA lipid probe targets in Neuro2a cells (Mus musculus, UniProt P45878).
T2 sequence (P45878 23-140): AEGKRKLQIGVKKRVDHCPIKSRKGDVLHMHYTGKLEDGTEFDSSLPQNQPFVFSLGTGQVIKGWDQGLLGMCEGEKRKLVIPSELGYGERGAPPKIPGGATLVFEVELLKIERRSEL
To be noted: protein Fkbp2, Neuro2a cells.

The target in test [16] is AEA-DA lipid probe targets in Neuro2a cells (Mus musculus, UniProt P21619). As to conditions: protein Lmnb2; Neuro2a cells; competitor 50 μM.
Chain of AEA-DA lipid probe targets in Neuro2a cells (Mus musculus, UniProt P21619) (P21619 whole entry): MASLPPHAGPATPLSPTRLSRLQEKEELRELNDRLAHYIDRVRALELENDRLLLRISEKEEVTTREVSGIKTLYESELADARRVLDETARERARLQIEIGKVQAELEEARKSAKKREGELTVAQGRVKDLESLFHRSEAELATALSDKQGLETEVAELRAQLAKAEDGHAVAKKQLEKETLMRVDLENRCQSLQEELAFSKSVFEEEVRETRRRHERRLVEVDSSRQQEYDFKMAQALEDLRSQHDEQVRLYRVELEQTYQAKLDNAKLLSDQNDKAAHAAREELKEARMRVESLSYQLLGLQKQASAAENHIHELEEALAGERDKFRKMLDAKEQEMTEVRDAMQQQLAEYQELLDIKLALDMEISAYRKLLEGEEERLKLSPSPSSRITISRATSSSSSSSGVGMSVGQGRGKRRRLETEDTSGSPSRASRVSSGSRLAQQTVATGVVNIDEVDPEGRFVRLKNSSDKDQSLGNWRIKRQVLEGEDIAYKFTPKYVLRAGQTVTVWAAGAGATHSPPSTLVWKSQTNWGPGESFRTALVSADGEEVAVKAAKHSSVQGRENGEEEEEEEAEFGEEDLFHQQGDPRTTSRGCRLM

Chain of A-DA lipid probe targets in A549 cells (Homo sapiens, UniProt Q5HYK3) (Q5HYK3 43-327): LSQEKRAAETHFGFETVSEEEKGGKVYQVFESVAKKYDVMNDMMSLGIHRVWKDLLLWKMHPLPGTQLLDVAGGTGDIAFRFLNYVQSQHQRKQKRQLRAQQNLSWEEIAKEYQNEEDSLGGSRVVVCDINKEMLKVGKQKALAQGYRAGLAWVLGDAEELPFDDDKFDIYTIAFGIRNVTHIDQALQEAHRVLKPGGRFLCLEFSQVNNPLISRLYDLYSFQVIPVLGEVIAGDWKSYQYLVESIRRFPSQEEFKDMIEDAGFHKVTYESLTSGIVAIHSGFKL
Chain of AEA-DA lipid probe targets in A549 cells (Homo sapiens, UniProt O95470) (O95470 whole entry): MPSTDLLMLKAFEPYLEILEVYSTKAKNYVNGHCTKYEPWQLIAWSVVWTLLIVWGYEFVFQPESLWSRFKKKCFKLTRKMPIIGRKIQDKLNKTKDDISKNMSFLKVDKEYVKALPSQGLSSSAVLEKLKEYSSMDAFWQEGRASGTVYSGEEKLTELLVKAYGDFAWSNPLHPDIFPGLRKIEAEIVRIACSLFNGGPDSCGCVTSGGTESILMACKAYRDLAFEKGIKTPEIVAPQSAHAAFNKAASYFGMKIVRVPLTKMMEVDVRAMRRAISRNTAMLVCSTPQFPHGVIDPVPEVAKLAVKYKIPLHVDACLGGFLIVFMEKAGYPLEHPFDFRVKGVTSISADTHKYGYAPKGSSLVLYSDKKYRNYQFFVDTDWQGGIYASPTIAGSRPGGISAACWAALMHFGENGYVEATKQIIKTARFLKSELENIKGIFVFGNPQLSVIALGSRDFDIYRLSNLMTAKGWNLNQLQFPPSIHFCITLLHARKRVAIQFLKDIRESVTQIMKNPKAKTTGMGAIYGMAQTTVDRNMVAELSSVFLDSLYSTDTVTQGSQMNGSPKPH
Chain of AEA-DA lipid probe targets in A549 cells (Homo sapiens, UniProt P67812) (P67812 whole entry): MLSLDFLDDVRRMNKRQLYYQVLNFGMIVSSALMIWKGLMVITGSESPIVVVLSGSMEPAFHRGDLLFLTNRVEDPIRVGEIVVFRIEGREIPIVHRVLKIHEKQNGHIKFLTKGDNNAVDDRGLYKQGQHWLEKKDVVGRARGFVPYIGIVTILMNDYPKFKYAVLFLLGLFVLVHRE
Chain of AEA-DA lipid probe targets in A549 cells (Homo sapiens, UniProt Q86XL3) (Q86XL3 whole entry): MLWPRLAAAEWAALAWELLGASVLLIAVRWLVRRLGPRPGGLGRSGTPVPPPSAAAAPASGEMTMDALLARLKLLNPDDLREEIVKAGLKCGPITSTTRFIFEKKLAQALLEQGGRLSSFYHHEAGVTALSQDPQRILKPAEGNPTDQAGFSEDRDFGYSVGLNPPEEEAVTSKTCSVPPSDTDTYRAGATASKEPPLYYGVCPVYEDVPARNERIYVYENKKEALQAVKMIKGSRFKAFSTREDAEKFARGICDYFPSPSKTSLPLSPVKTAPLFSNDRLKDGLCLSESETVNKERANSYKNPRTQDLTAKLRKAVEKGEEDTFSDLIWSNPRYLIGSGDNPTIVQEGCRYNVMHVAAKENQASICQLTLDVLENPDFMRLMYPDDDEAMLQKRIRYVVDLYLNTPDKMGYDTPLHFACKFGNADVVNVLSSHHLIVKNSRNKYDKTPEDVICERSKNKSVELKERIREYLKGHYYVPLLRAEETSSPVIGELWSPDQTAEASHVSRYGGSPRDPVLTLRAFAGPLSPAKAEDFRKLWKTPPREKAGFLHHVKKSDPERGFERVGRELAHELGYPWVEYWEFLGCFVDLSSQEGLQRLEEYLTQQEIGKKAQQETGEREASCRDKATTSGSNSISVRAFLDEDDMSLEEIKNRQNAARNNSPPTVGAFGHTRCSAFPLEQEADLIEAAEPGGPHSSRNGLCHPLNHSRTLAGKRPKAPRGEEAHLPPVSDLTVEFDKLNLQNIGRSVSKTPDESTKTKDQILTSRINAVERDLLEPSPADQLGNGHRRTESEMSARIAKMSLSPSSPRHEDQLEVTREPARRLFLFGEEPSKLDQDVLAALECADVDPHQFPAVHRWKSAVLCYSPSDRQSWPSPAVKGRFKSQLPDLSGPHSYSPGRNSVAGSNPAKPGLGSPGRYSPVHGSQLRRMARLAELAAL
Chain of AEA-DA lipid probe targets in A549 cells (Homo sapiens, UniProt Q53GQ0) (Q53GQ0 whole entry): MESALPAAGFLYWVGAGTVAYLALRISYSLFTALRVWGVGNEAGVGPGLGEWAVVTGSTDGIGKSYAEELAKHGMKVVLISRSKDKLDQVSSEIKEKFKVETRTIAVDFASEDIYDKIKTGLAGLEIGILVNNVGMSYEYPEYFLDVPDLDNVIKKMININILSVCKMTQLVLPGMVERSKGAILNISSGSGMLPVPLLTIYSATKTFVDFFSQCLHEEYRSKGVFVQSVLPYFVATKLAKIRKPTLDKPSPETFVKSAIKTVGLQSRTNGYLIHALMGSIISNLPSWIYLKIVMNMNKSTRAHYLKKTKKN
Chain of AEA-DA lipid probe targets in A549 cells (Homo sapiens, UniProt P45880) (P45880 whole entry): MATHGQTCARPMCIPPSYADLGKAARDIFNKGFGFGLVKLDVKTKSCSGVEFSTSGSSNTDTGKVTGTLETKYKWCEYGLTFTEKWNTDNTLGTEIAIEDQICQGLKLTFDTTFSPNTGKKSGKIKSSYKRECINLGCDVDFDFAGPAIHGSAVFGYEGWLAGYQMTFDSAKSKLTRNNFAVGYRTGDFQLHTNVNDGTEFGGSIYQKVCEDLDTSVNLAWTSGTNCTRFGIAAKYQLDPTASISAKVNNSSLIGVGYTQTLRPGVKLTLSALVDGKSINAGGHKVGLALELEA
Chain of A-DA lipid probe targets in A549 cells (Homo sapiens, UniProt P48449) (P48449 whole entry): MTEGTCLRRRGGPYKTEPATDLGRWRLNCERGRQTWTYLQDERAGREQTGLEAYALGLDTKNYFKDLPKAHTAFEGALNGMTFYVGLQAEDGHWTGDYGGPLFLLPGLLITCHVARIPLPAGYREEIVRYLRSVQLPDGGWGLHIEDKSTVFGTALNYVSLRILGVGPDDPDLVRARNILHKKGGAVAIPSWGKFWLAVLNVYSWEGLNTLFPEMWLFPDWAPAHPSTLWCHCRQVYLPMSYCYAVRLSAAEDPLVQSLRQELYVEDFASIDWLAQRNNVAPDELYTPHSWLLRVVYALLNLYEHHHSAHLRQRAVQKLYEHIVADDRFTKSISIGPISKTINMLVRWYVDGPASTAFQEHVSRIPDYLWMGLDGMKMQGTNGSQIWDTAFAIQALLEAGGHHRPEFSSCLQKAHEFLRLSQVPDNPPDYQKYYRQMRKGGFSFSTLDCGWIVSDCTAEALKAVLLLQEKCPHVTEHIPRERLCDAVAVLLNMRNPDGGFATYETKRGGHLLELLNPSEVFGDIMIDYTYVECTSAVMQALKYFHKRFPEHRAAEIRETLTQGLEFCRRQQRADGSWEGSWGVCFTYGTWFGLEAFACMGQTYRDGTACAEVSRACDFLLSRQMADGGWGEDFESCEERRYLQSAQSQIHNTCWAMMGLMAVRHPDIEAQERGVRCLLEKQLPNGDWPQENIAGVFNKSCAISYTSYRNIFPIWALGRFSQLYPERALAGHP
Chain of AEA-DA lipid probe targets in Neuro2a cells (Mus musculus, UniProt Q80YV4) (Q80YV4 whole entry): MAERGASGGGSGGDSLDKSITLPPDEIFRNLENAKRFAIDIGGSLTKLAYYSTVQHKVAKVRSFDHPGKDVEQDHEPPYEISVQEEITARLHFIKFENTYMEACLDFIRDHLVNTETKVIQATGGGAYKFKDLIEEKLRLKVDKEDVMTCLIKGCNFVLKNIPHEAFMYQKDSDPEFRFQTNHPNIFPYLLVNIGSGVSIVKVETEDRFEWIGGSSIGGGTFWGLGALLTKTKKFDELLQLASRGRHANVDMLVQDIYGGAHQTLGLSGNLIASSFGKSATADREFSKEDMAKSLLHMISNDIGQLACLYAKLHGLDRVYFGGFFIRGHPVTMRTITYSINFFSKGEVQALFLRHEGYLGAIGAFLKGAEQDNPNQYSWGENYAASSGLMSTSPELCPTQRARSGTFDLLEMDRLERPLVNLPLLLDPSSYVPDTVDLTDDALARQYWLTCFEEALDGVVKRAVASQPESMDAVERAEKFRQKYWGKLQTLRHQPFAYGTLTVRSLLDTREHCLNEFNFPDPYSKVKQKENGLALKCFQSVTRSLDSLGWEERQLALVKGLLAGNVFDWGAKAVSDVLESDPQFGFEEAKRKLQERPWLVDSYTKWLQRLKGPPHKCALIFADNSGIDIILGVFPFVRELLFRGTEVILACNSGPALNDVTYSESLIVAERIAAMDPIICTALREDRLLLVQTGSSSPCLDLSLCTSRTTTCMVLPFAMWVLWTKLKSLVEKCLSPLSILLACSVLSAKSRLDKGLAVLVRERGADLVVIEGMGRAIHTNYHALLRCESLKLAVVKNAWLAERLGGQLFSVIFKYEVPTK

Consider `C=CCN(C)CCCCCCOc1ccc(C(=O)c2ccc(Br)cc2)c(F)c1` [Ro488071], for which the “SILAC ratio, COQ5 (Q5HYK3)” value in test [1] (competitor 5 μM) is on record as 2.0; in test [1] (competitor 50 μM), 3.4.

On to `CCCCC/C=C\C/C=C\C/C=C\C/C=C\CCCC(=O)NCCO` [AEA, anandamide, reference compound], for which the “SILAC ratio Pank4” value in test [2] stood at 1.6.

Consider `C=CCN(C)CCCCCCOc1ccc(C(=O)c2ccc(Br)cc2)c(F)c1` [Ro 48-8071, reference compound], for which the “SILAC ratio, A-DA competition” value in test [3] (competitor 5.0 μM) and in test [3] (competitor 50 μM) was 1.3 throughout. For the same compound, in test [4], the “competition of probe labeling of LSS” value is recorded as “fully competed”.

On to `O=C(/C=C/c1cccnc1)NCCCCC1CCN(C(=O)c2ccccc2)CC1` [FK-866, reference compound], for which the “SILAC ratio, HSD17B12 (Q53GQ0)” value in test [5] was 0.8. For the same compound, in test [6], the “SILAC ratio, PGRMC2 (Q80UU9)” value was 0.7; the “SILAC ratio, PSAP (P07602)” value is listed as 0.7; the “SILAC ratio, TOMM22 (Q9CPQ3)” value was determined as 0.6; the “SILAC ratio, UGT1A7 (Q9HAW7)” value came out at 1.5. Besides, the “SILAC ratio, ANKLE2 (Q86XL3)” value in [7] is 0.6. The “SILAC ratio, VDAC2 (P45880)” value in [8] is recorded as 0.9. Moreover, the “SILAC ratio, SQLE (Q14534)” value in [9] was determined as 0.7. In test [10], the “SILAC ratio, VDAC1 (P21796)” value was 0.8. Moreover, in test [11], the “SILAC ratio, HMOX2 (P30519)” value turned out to be 0.7. In addition, in test [12], the “SILAC ratio, SGPL1 (O95470)” value was 0.8. Also, in [13], the “SILAC ratio, SEC11A (P67812)” value is 0.6. In addition, the “SILAC ratio, Plec” value in test [14] turned out to be 2.1.

For `CN1CCN(C(=O)c2[nH]c3ccc([N+](=O)[O-])cc3c2-c2ccccc2)CC1` [MJN228, (4-Methylpiperazin-1-yl)(5-nitro-3-phenyl-1H-indol-2-yl)methanone], the “SILAC ratio (AEA-DA competition)” value in test [15] (competitor 10 μM) is listed as 1.1; in test [15] (competitor 25 μM) it was 1.6; in [15] (competitor 100 μM) it was 1.1; in test [16] it was 1.9.
